For 8 compounds, IC50 results are on record in patent US20220411471A1, “CELL-PERMEABLE CYCLIC PEPTIDES AND USES THEREOF” (Unnatural Products Inc., priority 2019, published 2022).

Like-named read-outs stand apart in the source and are kept apart here. Non-standard residues stand in square brackets, D forms with d. Residues, ends and D or L forms follow the SMILES beside them. Ala(4-thiazolyl) = N[C@@H](Cc1cscn1)C(=O)O; NMePhe(4-F) = CN[C@@H](Cc1ccc(F)cc1)C(=O)O; Phe(4-Cl) = N[C@@H](Cc1ccc(Cl)cc1)C(=O)O; Phe(4-F) = N[C@@H](Cc1ccc(F)cc1)C(=O)O; NMeF = CN[C@@H](Cc1ccccc1)C(=O)O; 3Pal = N[C@@H](Cc1cccnc1)C(=O)O; 2Thi = N[C@@H](Cc1cccs1)C(=O)O; NMeL = CN[C@@H](CC(C)C)C(=O)O; dNMeV = CN[C@@H](C(=O)O)C(C)C; Tle = CC(C)(C)[C@H](N)C(=O)O; hSer = N[C@@H](CCO)C(=O)O; NMeA = CN[C@@H](C)C(=O)O; dNMeA = CN[C@H](C)C(=O)O; Abu = CC[C@H](N)C(=O)O; Nme = COCCNCC(=O)O; Sar = CNCC(=O)O

As usually defined, the IC50 is the concentration at which inhibition is half-maximal.

What all share (format): binding
Test [1] deals with T1, Human MDM2 (HDM2) 1-116 (Homo sapiens, UniProt Q00987).
T1 construct: Human MDM2 (HDM2) 1-116
T1 sequence (Q00987 1-116): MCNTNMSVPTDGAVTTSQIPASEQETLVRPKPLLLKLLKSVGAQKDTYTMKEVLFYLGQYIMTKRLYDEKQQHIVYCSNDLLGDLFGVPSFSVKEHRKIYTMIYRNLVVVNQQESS
Description: Fluorescence polarization assay 2, MDM2 (Table 4). The protocol: Compounds dissolved in DMSO were pin transferred (˜100-200 nL) to the 384 well plate containing the MDM2/p53 solution. After incubation for 60 minutes, the fluorescence polarization was read on a Molecular Devices SpectraMax plate reader equipped with a Fluorescein FP cartridge. In addition to probe alone (positive control) and probe/MDM2 (negative control), a titration of linear p53(18-26) was included on every plate as an additional control. IC50 values were fit using either Prism or Collaborative Drug Discovery.
(In fluorescence polarisation assays a small probe gives low polarisation when free and higher when bound to something large.)

The target of test [2] is T2, Human MDM4 (HDM4) 1-114 (Homo sapiens, UniProt O15151).
T2 construct: Human MDM4 (HDM4) 1-114
T2 sequence (O15151 1-114): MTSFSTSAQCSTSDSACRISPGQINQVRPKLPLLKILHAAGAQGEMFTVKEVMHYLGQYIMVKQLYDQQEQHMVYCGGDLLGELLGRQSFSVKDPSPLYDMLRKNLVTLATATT
Kind of test: Fluorescence polarization assay 2, MDM4 (Table 4). The protocol: Compounds dissolved in DMSO were pin transferred (˜100-200 nL) to the 384 well plate containing the MDM4/p53 solution. After incubation for 60 minutes, the fluorescence polarization was read on a Molecular Devices SpectraMax plate reader equipped with a Fluorescein FP cartridge. In addition to probe alone (positive control) and probe/MDM4 (negative control), a titration of linear p53(18-26) was included on every plate as an additional control. IC50 values were fit using either Prism or Collaborative Drug Discovery.

In test [3] the target is T1, Human MDM2 (HDM2) 1-116. Description: Fluorescence polarization assay, MDM2/p53 (Table 3).
[4] abbreviates: Table 4, fluorescence polarization, read-out: MDM2 IC50.
The mark [5] stands for this setting: Table 4, fluorescence polarization, read-out: MDM4 IC50.

On to `COCC[C@@H]1NC(=O)[C@H]2CCCN2C(=O)[C@H](Cc2ccccc2)N(C)C(=O)[C@H](Cc2ccc(Cl)cc2)NC(=O)CN(C)C(=O)[C@H](Cc2ccc(F)cc2)NC(=O)[C@H](C)N(C)C(=O)[C@@H](C)N(C)C(=O)[C@H](Cc2cscn2)NC(=O)[C@H](C)N(C)C1=O` [Compound 33, COCC[C@@H]1NC(=O)[C@H]2CCCN2C(=O)[C@H](CC2=CC=CC=C2)N(C)C(=O)[C@H](CC2=CC=C(Cl)C=C2)NC(=O)CN(C)C(=O)[C@H](CC2=CC=C(F)C=C2)NC(=O)[C@H](C)N(C)C(=O)[C@@H](C)N(C)C(=O)[C@H](CC2=CSC=N2)NC(=O)[C@H](C)N(C)C1=O] (cyclo([Ala(4-thiazolyl)][dNMeA][NMeA][Phe(4-F)][Sar][Phe(4-Cl)][NMeF][dP][hSer](Me)[NMeA])), for which the IC50 in test [1] is below 25 nM; in test [2], 50 to 100 nM.
On to `COCC[C@@H]1NC(=O)[C@H]2CCCN2C(=O)[C@H](Cc2ccccc2)N(C)C(=O)[C@H](Cc2ccc(Cl)cc2)NC(=O)[C@H](C(C)C)NC(=O)[C@H](Cc2ccc(F)cc2)NC(=O)CN(CCOC)C(=O)[C@@H](C)N(C)C(=O)[C@H](Cc2cscn2)NC(=O)[C@H](C)N(C)C1=O` [Compound 41, COCC[C@@H]1NC(=O)[C@H]2CCCN2C(=O)[C@H](CC2=CC=CC=C2)N(C)C(=O)[C@H](CC2=CC=C(Cl)C=C2)NC(=O)[C@@H](NC(=O)[C@H](CC2=CC=C(F)C=C2)NC(=O)CN(CCOC)C(=O)[C@@H](C)N(C)C(=O)[C@H](CC2=CSC=N2)NC(=O)[C@H](C)N(C)C1=O)C(C)C] (cyclo([Ala(4-thiazolyl)][dNMeA][Nme][Phe(4-F)]V[Phe(4-Cl)][NMeF][dP][hSer](Me)[NMeA])), for which the IC50 in test [1] (setting [4]) was below 25 nM; in test [2] (setting [5]) it was below 50 nM.
Regarding `COCC[C@@H]1NC(=O)[C@H]2CCCN2C(=O)[C@H](Cc2ccccc2)N(C)C(=O)[C@H](Cc2ccc(Cl)cc2)NC(=O)[C@H](C(C)(C)C)NC(=O)[C@H](Cc2ccc(F)cc2)NC(=O)[C@H](C)N(C)C(=O)[C@@H](C)N(C)C(=O)[C@H](Cc2cscn2)NC(=O)[C@H](C)N(C)C1=O` [Compound 36, COCC[C@@H]1NC(=O)[C@H]2CCCN2C(=O)[C@H](Cc2ccccc2)N(C)C(=O)[C@H](Cc2ccc(Cl)cc2)NC(=O)[C@@H](NC(=O)[C@H](Cc2ccc(F)cc2)NC(=O)[C@H](C)N(C)C(=O)[C@@H](C)N(C)C(=O)[C@H](CC2=CSC=N2)NC(=O)[C@H](C)N(C)C1=O)C(C)(C)C] (cyclo([Ala(4-thiazolyl)][dNMeA][NMeA][Phe(4-F)][Tle][Phe(4-Cl)][NMeF][dP][hSer](Me)[NMeA])), the IC50 in test [1] (setting [4]) is below 25 nM; in test [2] (setting [5]), 50 to 100 nM.
For `COCC[C@@H]1NC(=O)[C@H]2CCCN2C(=O)[C@H](Cc2ccc(F)cc2)N(C)C(=O)[C@H](Cc2ccc(Cl)cc2)NC(=O)[C@H](C(C)(C)C)NC(=O)[C@H](Cc2ccc(F)cc2)NC(=O)[C@H](C)N(C)C(=O)[C@@H](C)N(C)C(=O)[C@H](Cc2cscn2)NC(=O)[C@H](C)N(C)C1=O` [Compound 38, COCC[C@@H]1NC(=O)[C@H]2CCCN2C(=O)[C@H](Cc2ccc(F)cc2)N(C)C(=O)[C@H](CC2=CC=C(Cl)C=C2)NC(=O)[C@@H](NC(=O)[C@H](Cc2ccc(F)cc2)NC(=O)[C@H](C)N(C)C(=O)[C@@H](C)N(C)C(=O)[C@H](CC2=CSC=N2)NC(=O)[C@H](C)N(C)C1=O)C(C)(C)C] (cyclo([Ala(4-thiazolyl)][dNMeA][NMeA][Phe(4-F)][Tle][Phe(4-Cl)][NMePhe(4-F)][dP][hSer](Me)[NMeA])) the same measures were 25 to 50 nM and 50 to 100 nM.
For `CC[C@@H]1NC(=O)[C@H](Cc2ccc(F)cc2)NC(=O)CN(CCOC)C(=O)[C@@H](C)N(C)C(=O)[C@H](Cc2cscn2)NC(=O)[C@H](C)N(C)C(=O)[C@H](CCOC)NC(=O)[C@H]2CCCN2C(=O)[C@H](Cc2ccccc2)N(C)C(=O)[C@H](Cc2ccc(Cl)cc2)NC1=O` [Compound 42, CC[C@@H]1NC(=O)[C@H](CC2=CC=C(F)C=C2)NC(=O)CN(CCOC)C(=O)[C@@H](C)N(C)C(=O)[C@H](CC2=CSC=N2)NC(=O)[C@H](C)N(C)C(=O)[C@H](CCOC)NC(=O)[C@H]2CCCN2C(=O)[C@H](CC2=CC=CC=C2)N(C)C(=O)[C@H](CC2=CC=C(Cl)C=C2)NC1=O] (cyclo([Abu][Phe(4-Cl)][NMeF][dP][hSer](Me)[NMeA][Ala(4-thiazolyl)][dNMeA][Nme][Phe(4-F)])) the same measures were 25 to 50 nM and 100 to 150 nM.
For `COCC[C@@H]1NC(=O)[C@H]2CCCN2C(=O)[C@H](Cc2ccc(F)cc2)N(C)C(=O)[C@H](Cc2ccc(Cl)cc2)NC(=O)[C@H](C(C)(C)C)NC(=O)[C@H](Cc2ccc(F)cc2)NC(=O)CN(CCOC)C(=O)[C@@H](C)N(C)C(=O)[C@H](Cc2cscn2)NC(=O)[C@H](C)N(C)C1=O` [Compound 37, COCC[C@@H]1NC(=O)[C@H]2CCCN2C(=O)[C@H](Cc2ccc(F)cc2)N(C)C(=O)[C@H](CC2=CC=C(Cl)C=C2)NC(=O)[C@@H](NC(=O)[C@H](Cc2ccc(F)cc2)NC(=O)CN(CCOC)C(=O)[C@@H](C)N(C)C(=O)[C@H](CC2=CSC=N2)NC(=O)[C@H](C)N(C)C1=O)C(C)(C)C] (cyclo([Ala(4-thiazolyl)][dNMeA][Nme][Phe(4-F)][Tle][Phe(4-Cl)][NMePhe(4-F)][dP][hSer](Me)[NMeA])) the same measures were 25 to 50 nM and 50 to 100 nM.
In test [3], `CC(C)C[C@H]1C(=O)N[C@@H](CC(=O)O)C(=O)N[C@@H](Cc2ccc(F)cc2)C(=O)N[C@@H](CCC(=O)O)C(=O)N[C@@H](Cc2ccccc2)C(=O)N2CCC[C@@H]2C(=O)N2CCC[C@H]2C(=O)N[C@@H](Cc2cccs2)C(=O)N[C@@H](CCC(=O)O)C(=O)N[C@@H](Cc2c[nH]c3ccccc23)C(=O)N1C` [Compound 5, [H]OC(=O)CC[C@@H]1NC(=O)[C@H](Cc2cccs2)NC(=O)[C@@H]2CCCN2C(=O)[C@H]2CCCN2C(=O)[C@H](Cc2ccccc2)NC(=O)[C@H](CCC(=O)O[H])NC(=O)[C@H](Cc2ccc(F)cc2)NC(=O)[C@H](CC(=O)O[H])NC(=O)[C@H](CC(C)C)N(C)C(=O)[C@H](Cc2cn([H])c3ccccc23)NC1=O] (cyclo([2Thi]EW[NMeL]D[Phe(4-F)]EF[dP]P)) returned a half-maximal inhibitory concentration (IC50) below 1000 nM.
Same read-out and setting: the figure for `COCCN1CC(=O)N(C)[C@@H](C)C(=O)N[C@@H](Cc2ccc(F)cc2)C(=O)N(C)[C@@H](C)C(=O)N[C@@H](Cc2ccc(Cl)cc2)C(=O)N(C)[C@H](C(C)C)C(=O)N2CCC[C@H]2C(=O)N[C@@H](Cc2cccs2)C(=O)N[C@@H](C(C)(C)C)C(=O)N[C@@H](Cc2cccnc2)C1=O` [Compound 17, COCCN1CC(=O)N(C)[C@@H](C)C(=O)N[C@@H](Cc2ccc(F)cc2)C(=O)N(C)[C@@H](C)C(=O)N[C@@H](Cc2ccc(Cl)cc2)C(=O)N(C)[C@H](C(C)C)C(=O)N2CCC[C@H]2C(=O)N[C@@H](Cc2cccs2)C(=O)N[C@H](C(=O)N[C@@H](Cc2cccnc2)C1=O)C(C)(C)C] (cyclo([2Thi][Tle][3Pal][Nme][NMeA][Phe(4-F)][NMeA][Phe(4-Cl)][dNMeV]P)) is below 1000 nM.
